This is an account of results in publication PMC8453745, “Human Mass Balance and Metabolite Profiling of [^14C]‐Pamiparib, a Poly (ADP‐Ribose) Polymerase Inhibitor, in Patients With Advanced Cancer” (Clinical Pharmacology in Drug Development, 2021).

The structures appear in SMILES notation. “Also recorded” adds a separate entry of the source.

One data set addresses T1, rCYP2C8 (Homo sapiens, UniProt P10632).
T1 construct: purchased Corning (Woburn, New York)
T1 sequence (P10632 1-490): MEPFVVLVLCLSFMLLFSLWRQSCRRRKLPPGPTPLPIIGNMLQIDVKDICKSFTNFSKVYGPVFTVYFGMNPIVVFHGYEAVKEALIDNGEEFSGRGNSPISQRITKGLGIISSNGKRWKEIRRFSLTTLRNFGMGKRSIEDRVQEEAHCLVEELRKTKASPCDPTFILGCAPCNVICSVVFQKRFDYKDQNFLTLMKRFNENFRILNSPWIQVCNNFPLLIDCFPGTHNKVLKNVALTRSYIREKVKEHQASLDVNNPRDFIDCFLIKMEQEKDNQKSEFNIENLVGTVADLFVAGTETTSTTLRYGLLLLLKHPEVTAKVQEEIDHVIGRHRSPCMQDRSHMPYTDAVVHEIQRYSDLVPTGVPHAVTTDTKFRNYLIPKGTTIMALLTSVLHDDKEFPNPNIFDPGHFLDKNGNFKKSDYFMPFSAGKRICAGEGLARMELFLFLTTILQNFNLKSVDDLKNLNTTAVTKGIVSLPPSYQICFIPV
Put plainly: incubation of pamiparib with recombinant CYP2C8. Format: in vitro ADME. The note with it: 1 μM pamiparib, 50 pmol/mL, 90 minutes. The protocol: (§1) Metabolic stability in human liver microsomes (HLMs) and cytochrome P450 (CYP450) phenotyping assays were conducted in 3D BioOptima (Suzhou, China) using validated methodology, [13] to determine the intrinsic clearance and enzymes responsible for metabolism of pamiparib. HLMs for microsome stability was from BD Biosciences (Woburn, New York). For phenotyping, HLMs and recombinant P450 (rCYP) were from Corning (Woburn, New York). Pamiparib (1 μM) was incubated with pooled HLM (0.5 mg/mL), NADPH (1 mM), and MgCl2 (3 mM) terminated at 0, 5, 15, 30, 60, and 90 minutes. The intrinsic clearance was calculated as 0.693/(t1/2 × HLM concentration), where t1/2 is the half‐life of pamiparib determined in HLMs. For phenotyping in HLMs, pamiparib (1 μM) was incubated in the absence or presence of isoform‐selective inhibitors: 0.2 μM α‐naphthoflavone for CYP1A2, 2 μM clopidogrel for CYP2B6, 16 μM montelukast for CYP2C8, 10 μM sulfaphenazole for CYP2C9, 30 μM nootkatone for CYP2C19, 2 μM quinidine for CYP2D6, and 1 μM ketoconazole for CYP3A. The following isoform‐selective probe substrates served as positive controls: 40 μM phenacetin for CYP1A2, 100 μM bupropion for CYP2B6, 2 μM amodiaquine for CYP2C8, 5 μM diclofenac for CYP2C9, 40 μM S‐mephenytoin for CYP2C19, 5 μM dextromethorphan for CYP2D6, and 2 μM midazolam for CYP3A4. […] Pamiparib, M1, and M2 were analyzed by LC‐MS/MS.

A short description of data set [1]: stability of metabolite M2. Format: physicochemical. The note with it: dehydrates in the LC‐MS source or under other conditions.
Another data set has as its target T2, rCYP3A4 (Homo sapiens, UniProt P08684).
T2 construct: purchased Corning (Woburn, New York)
The data set is described as follows: incubation of pamiparib with recombinant CYP3A4. The note with it: 1 μM pamiparib, 50 pmol/mL, 90 minutes. Type of data set: in vitro ADME. Here is the method:
as §1

A short description of data set [2]: metabolite profiling in plasma (radioprofiling, LC‐MS). Type of data set: in vivo, human. The note with it: plasma. The protocol: (§2) Total radioactivity concentrations of [^14C]‐pamiparib in whole blood, plasma, urine, and feces were determined by liquid scintillation counting (LSC). Radioactivity in each sample was measured for 5 minutes using a Packard Tri‐Carb liquid scintillation counter model 2100TR, 2900TR, or 3100TR (Canberra Packard, Pangbourne, Berks, Australia) with the facilities for computing quench‐corrected disintegrations per minute. Metabolite identification in plasma, urine, and feces was conducted by LC‐MS. Quantitation of the metabolites present in plasma, urine, and feces was based on the profiles of radioactivity. The limit of quantitation for radioactivity in plasma, urine, and feces was set at 1% of each chromatographic analysis (run) and 10 counts per minute (cpm) peak height; therefore, radioactive peaks that were <1% of the total run or <10 cpm peak height were reported as not detected. In addition, pamiparib and standards were reported, regardless of the percentage of run or peak height.
For metabolite profiling in plasma, ≈1.9 to 2.8 g of each plasma sample collected 0.5, 1, 2, 6, 12, and 24 hours postdose was extracted twice with 6 mL of 0.1% formic acid in acetonitrile (ACN). Duplicate aliquots were analyzed by LSC to determine extraction recoveries, which ranged from 77.4% to 98.5%. The combined supernatants were evaporated to dryness under nitrogen and reconstituted in 2:1 reverse osmosis water:methanol (MeOH). Duplicate aliquots were analyzed by LSC to determine reconstitution recoveries, which ranged from 89.3% to 115%. The reconstituted samples were analyzed by LC‐MS, with eluent fractions collected at 10‐second intervals into 96‐well plates containing solid scintillant. Radioactivity in each well was determined using TopCount analysis, and radiochemical profiles were generated based on radioactivity counts.
(§3) Metabolic profiling was performed on plasma, urine, and feces samples using LC‐MS. Shimadzu/Nexera LC‐30AD pumps and Shimadzu/Prominence DGU‐20A5R degasser were used with Shimadzu/Prominence controller CBM‐20A. The high‐pressure liquid chromatograph (HPLC) was equipped with an autoinjector (Shimadzu/Nexera SIL‐30ACMP) set at 10°C and a fraction collector (Leap Technologies PAL HTC‐xt) set at 15°C. Thermo Fisher Scientific Q Exactive was the mass spectrometer system.

Data set [3] concerns rCYP1A2, rCYP2B6, rCYP2C8, rCYP2C9, rCYP2C19, rCYP2D6, rCYP3A4. The data set is described as follows: incubation of pamiparib with recombinant P450 isoform panel. Type of data set: in vitro ADME. The note with it: 1 μM pamiparib, 50 pmol/mL, 90 minutes. The protocol: as §1
The next data set concerns the target T3, rCYP2D6 (Homo sapiens, UniProt P10635).
T3 construct: purchased Corning (Woburn, New York)
The data set is described as follows: incubation of pamiparib with recombinant CYP2D6. Type of data set: in vitro ADME. The settings on record: 1 μM pamiparib, 50 pmol/mL, 90 minutes. Here is the method: as §1

The nature of data set [4]: metabolite profiling in pooled urine (radioprofiling, LC‐MS). Type of data set: in vivo, human. The note with it: pooled urine 0‐96 hours, mean. The protocol:
as §2
Each aliquot of urine (about 1 mL, weighed) was added directly to liquid scintillant prior to LSC. For metabolite profiling, urine samples collected 0‐4, 4‐8, 8‐12, 12‐24, 24‐48, 48‐72, and 72‐96 hours postdose were pooled by individual patient to generate 0‐ to 96‐hour pooled samples including 0.2% of each sample by weight. The radioactivity in each pooled sample was determined by LSC. The total amount of urine collected was factored into the recovery calculation. […] Pooled urine samples were analyzed by LC‐MS, with eluent fractions collected at 10‐second intervals into 96‐well plates containing solid scintillant. Radioactivity in each well was determined using TopCount analysis, and radiochemical profiles were generated based on radioactivity counts.
as §3

The nature of data set [5]: metabolite profiling in pooled feces (radioprofiling, LC‐MS). Format: in vivo, human. The settings on record: pooled feces 0‐120 hours, mean. The protocol: as §2
Portions of fecal homogenates (about 200‐500 mg) were subjected to combustion analysis prior to LSC. For metabolite profiling, feces samples collected 0‐24, 24‐48, 48‐72, 72‐96, and 96‐120 hours postdose were pooled by individual patient to generate 0‐ to 120‐hour pooled samples including 0.5% of each sample by weight. Feces were pooled per patient (if required) according to the appropriate 24‐hour collection period. The samples were homogenized in deionized water, avoiding excessive dilution (data on file). The radioactivity in each pooled sample was determined by LSC. The total amount of feces collected was factored into the recovery calculation. Approximately 1.6 to 2.7 g of each pooled feces sample was extracted twice with 6 mL of 0.1% formic acid in ACN. […] The combined supernatants were evaporated to dryness under nitrogen and reconstituted in 300 μL of MeOH. […] The reconstituted samples were analyzed by LC‐MS, with eluent fractions collected, and radiochemical profiles were generated based on radioactivity counts. […]

T2 sequence (P08684 whole entry): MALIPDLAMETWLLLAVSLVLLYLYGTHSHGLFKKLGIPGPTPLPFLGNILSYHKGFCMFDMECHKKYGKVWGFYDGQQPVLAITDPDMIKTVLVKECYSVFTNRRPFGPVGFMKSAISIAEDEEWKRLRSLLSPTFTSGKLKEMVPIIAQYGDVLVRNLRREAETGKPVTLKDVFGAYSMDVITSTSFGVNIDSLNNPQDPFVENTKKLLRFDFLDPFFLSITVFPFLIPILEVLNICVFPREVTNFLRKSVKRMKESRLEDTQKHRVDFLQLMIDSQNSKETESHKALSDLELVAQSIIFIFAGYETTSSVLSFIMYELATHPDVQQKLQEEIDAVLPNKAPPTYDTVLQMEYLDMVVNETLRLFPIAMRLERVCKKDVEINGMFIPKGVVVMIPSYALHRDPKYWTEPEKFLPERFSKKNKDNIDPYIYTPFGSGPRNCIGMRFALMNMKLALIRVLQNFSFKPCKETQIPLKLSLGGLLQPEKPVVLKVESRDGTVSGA
T3 sequence (P10635 whole entry): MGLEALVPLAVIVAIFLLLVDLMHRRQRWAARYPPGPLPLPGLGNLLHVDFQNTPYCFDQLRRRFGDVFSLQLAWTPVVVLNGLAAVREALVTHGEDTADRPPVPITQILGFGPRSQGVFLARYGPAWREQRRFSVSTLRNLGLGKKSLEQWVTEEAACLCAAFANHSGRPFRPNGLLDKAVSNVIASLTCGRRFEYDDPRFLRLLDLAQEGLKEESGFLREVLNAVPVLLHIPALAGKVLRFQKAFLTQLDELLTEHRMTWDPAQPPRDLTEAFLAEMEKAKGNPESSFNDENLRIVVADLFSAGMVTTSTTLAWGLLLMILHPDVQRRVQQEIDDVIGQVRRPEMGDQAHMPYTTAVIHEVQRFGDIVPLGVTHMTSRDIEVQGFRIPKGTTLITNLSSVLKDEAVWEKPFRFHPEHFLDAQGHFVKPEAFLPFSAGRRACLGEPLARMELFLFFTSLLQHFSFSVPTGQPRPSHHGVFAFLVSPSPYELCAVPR

For `C[C@]12CCC(O)N1CC1=NNC(=O)c3cc(F)cc4[nH]c2c1c34` (stereo partly drawn) [Metabolite M2], the “metabolite formation after incubation of pamiparib with rCYP2C8” value on rCYP2C8 was “higher levels; also recorded: generated”. The “stability of the metabolite” value in data set [1] was “not stable”. Moreover, the “metabolite formation after incubation of pamiparib with rCYP3A4” value on rCYP3A4 is listed as “higher levels”. The “Percent of Total Radioactivity Concentration (AUC0‐24h)” value in data set [2] (patient S103) came to 2.00%; in data set [2] (patient S104), 4.38%. Also, the “metabolite detection across rCYP isoforms” value in data set [3] is listed as “detected in all isoforms except rCYP2C9”. For the same compound, at rCYP2D6, the “metabolite formation after incubation of pamiparib with rCYP2D6” value was “higher levels; also recorded: generated”. Besides, in data set [4], the “% of Radioactive Dose, Urine” value is given as “not identified”. Also, in data set [5], the “% of Radioactive Dose, Feces” value is “not identified”.
For `C[C@]12CCC[N+]1([O-])CC1=NNC(=O)c3cc(F)cc4[nH]c2c1c34` (stereo partly drawn) [Metabolite M1], the “metabolite formation after incubation of pamiparib with rCYP3A4” value on rCYP3A4 is reported as “detected; also recorded: generated”. Also, the “metabolite detection across rCYP isoforms” value in data set [3] was “not detected with other rCYP isoforms”. For the same compound, on rCYP2D6, the “metabolite formation after incubation of pamiparib with rCYP2D6” value was “detected; also recorded: generated”. Also, in data set [4], the “% of Radioactive Dose, Urine” value stood at 0.53%.
`C[C@]1(CCCO)NCC2=NNC(=O)c3cc(F)cc4[nH]c1c2c34` [Metabolite M10, pamiparib hydrate]: the “% of Radioactive Dose, Urine” value in data set [4] is reported as 8.05%. In data set [5], the “% of Radioactive Dose, Feces” value came out at 1.3%.
